# Experimental data taken from patent US20230263822A1, “MODULATION OF FACTOR 11 EXPRESSION” (Ionis Pharmaceuticals, Inc., priority 2008, published 2023).
# Strand notation (5' to 3'): a small letter for the sugar, then the base; units joined by * are phosphorothioate-linked, units joined directly phosphodiester-linked; [ ] holds rarer units or linkages, { } end groups; capitals alone tell only the bases. e = 2'-O-(2-methoxyethyl) (MOE); [5mC] = 5-methylcytosine; d = 2'-deoxy (DNA)
# Columns and labels:
# Assay type in all cases: in vivo
# [1] = Hematology assays in cynomolgus monkeys (Example 46)
# Protocol: Groups, each consisting of two male and two female monkeys, were injected subcutaneously with 25 mg/kg of ISIS 416850, ISIS 449709, ISIS 445522, ISIS 449710, ISIS 449707, ISIS 449711, ISIS 449708, 416858, and ISIS 445531. Antisense oligonucleotide was administered to the monkeys at 25 mg/kg three times per week for week 1 and 25 mg/kg twice per week for weeks 2 to 8. A control group, consisting of two male and two female monkeys was injected subcutaneously with PBS according to the same dosing regimen. Body weights were taken 14 days and 7 days before the start of treatment and were then measured weekly throughout the treatment period. Blood samples were collected 14 days and 5 days before the start of treatment and subsequently several times during the dosing regimen for PT and aPTT measurements, and measurement of various hematologic factors. On day 55, the monkeys were euthanized by exsanguination while under deep anesthesia, and organs harvested for further analysis.
# [2] = Tolerability in CD1 mice: body weight and organ weight (Example 43); details: 50 mg/kg s.c. twice per week for 6 weeks, end of study
# [3] = Tolerability in Sprague-Dawley rats: kidney function (Example 44); details: 50 mg/kg s.c. twice per week for 6 weeks; for BUN / Creatinine: plasma
substance,measurement,setting,value
"ISIS 449708: 3-8-3, 4-8-4, 2-10-2, 3-10-3 or 4-10-4 MOE microwalk gapmer (Table 46) (antisense eA*e[5mC]*eA*dG*dT*dT*dT*d[5mC]*dT*dG*dG*e[5mC]*eA*eG)",HCT,[1]; Day 17,44%
same,MCH,[1]; Day 17,22.9 pg
same,MCHC,[1]; Day 17,30.7 g/dL
same,MCV,[1]; Day 17,75 fL
same,RBC count,[1]; Day 17,5.9e+06 µL⁻¹
same,WBC count,[1]; Day 17,11000 µL⁻¹
same,hemoglobin content,[1]; Day 17,13.5 g/dL
same,monocytes,[1]; Day 17,5.4%
same,neutrophils,[1]; Day 17,61%
same,platelet count,[1]; Day 17,444 ×100/μL
same,HCT,[1]; Day 31,43%
same,MCH,[1]; Day 31,22.7 pg
same,MCHC,[1]; Day 31,29.9 g/dL
same,MCV,[1]; Day 31,75 fL
same,RBC count,[1]; Day 31,5.8e+06 µL⁻¹
same,WBC count,[1]; Day 31,11000 µL⁻¹
same,hemoglobin content,[1]; Day 31,13.0 g/dL
same,monocytes,[1]; Day 31,5.8%
same,neutrophils,[1]; Day 31,57%
same,platelet count,[1]; Day 31,378 ×100/μL
same,HCT,[1]; Day 45,44%
same,MCH,[1]; Day 45,22.2 pg
same,MCHC,[1]; Day 45,30.6 g/dL
same,MCV,[1]; Day 45,74 fL
same,RBC count,[1]; Day 45,6e+06 µL⁻¹
same,WBC count,[1]; Day 45,10000 µL⁻¹
same,hemoglobin content,[1]; Day 45,13.3 g/dL
same,monocytes,[1]; Day 45,7.0%
same,neutrophils,[1]; Day 45,61%
same,platelet count,[1]; Day 45,381 ×100/μL
same,HCT,[1]; Day 55,42%
same,MCH,[1]; Day 55,22.5 pg
same,MCHC,[1]; Day 55,31.8 g/dL
same,MCV,[1]; Day 55,74 fL
same,RBC count,[1]; Day 55,5.8e+06 µL⁻¹
same,WBC count,[1]; Day 55,10000 µL⁻¹
same,hemoglobin content,[1]; Day 55,13.0 g/dL
same,monocytes,[1]; Day 55,6.2%
same,neutrophils,[1]; Day 55,75%
same,platelet count,[1]; Day 55,348 ×100/μL
same,HCT,[1]; Day-5,44%
same,MCH,[1]; Day-5,22.7 pg
same,MCHC,[1]; Day-5,30.2 g/dL
same,MCV,[1]; Day-5,75 fL
same,RBC count,[1]; Day-5,5.9e+06 µL⁻¹
same,WBC count,[1]; Day-5,10000 µL⁻¹
same,hemoglobin content,[1]; Day-5,13.2 g/dL
same,monocytes,[1]; Day-5,2.6%
same,neutrophils,[1]; Day-5,84%
same,platelet count,[1]; Day-5,517 ×100/μL
same,HCT,[1]; Day-14,41%
same,MCH,[1]; Day-14,22.9 pg
same,MCHC,[1]; Day-14,31.4 g/dL
same,MCV,[1]; Day-14,73 fL
same,RBC count,[1]; Day-14,5.7e+06 µL⁻¹
same,WBC count,[1]; Day-14,14000 µL⁻¹
same,hemoglobin content,[1]; Day-14,13.0 g/dL
same,monocytes,[1]; Day-14,1.7%
same,neutrophils,[1]; Day-14,73%
same,platelet count,[1]; Day-14,387 ×100/μL
same,Change in Kidney weight,[2],0%
same,Change in Liver weight,[2],+17%
same,Change in Spleen weight,[2],+66%
same,BUN,[3],24 mg/dL
same,Creatinine,[3],0.4 mg/dL
same,Urine protein/creatinine ratio,[3],5.7
"ISIS 449710: 3-8-3, 4-8-4, 2-10-2, 3-10-3 or 4-10-4 MOE microwalk gapmer (Table 46) (antisense e[5mC]*eA*e[5mC]*dA*dG*dT*dT*dT*d[5mC]*dT*dG*dG*d[5mC]*eA*eG*eG)",HCT,[1]; Day 17,43%
same,MCH,[1]; Day 17,23.1 pg
same,MCHC,[1]; Day 17,30.7 g/dL
same,MCV,[1]; Day 17,75 fL
same,RBC count,[1]; Day 17,5.8e+06 µL⁻¹
same,WBC count,[1]; Day 17,12000 µL⁻¹
same,hemoglobin content,[1]; Day 17,13.4 g/dL
same,monocytes,[1]; Day 17,2.5%
same,neutrophils,[1]; Day 17,80%
same,platelet count,[1]; Day 17,382 ×100/μL
same,HCT,[1]; Day 31,44%
same,MCH,[1]; Day 31,22.6 pg
same,MCHC,[1]; Day 31,30.1 g/dL
same,MCV,[1]; Day 31,75 fL
same,RBC count,[1]; Day 31,5.8e+06 µL⁻¹
same,WBC count,[1]; Day 31,12000 µL⁻¹
same,hemoglobin content,[1]; Day 31,13.1 g/dL
same,monocytes,[1]; Day 31,2.4%
same,neutrophils,[1]; Day 31,94%
same,platelet count,[1]; Day 31,422 ×100/μL
same,HCT,[1]; Day 45,43%
same,MCH,[1]; Day 45,21.8 pg
same,MCHC,[1]; Day 45,30.4 g/dL
same,MCV,[1]; Day 45,75 fL
same,RBC count,[1]; Day 45,5.7e+06 µL⁻¹
same,WBC count,[1]; Day 45,11000 µL⁻¹
same,hemoglobin content,[1]; Day 45,13.0 g/dL
same,monocytes,[1]; Day 45,3.4%
same,neutrophils,[1]; Day 45,97%
same,platelet count,[1]; Day 45,313 ×100/μL
same,HCT,[1]; Day 55,41%
same,MCH,[1]; Day 55,22.7 pg
same,MCHC,[1]; Day 55,31.1 g/dL
same,MCV,[1]; Day 55,73 fL
same,RBC count,[1]; Day 55,5.6e+06 µL⁻¹
same,WBC count,[1]; Day 55,15000 µL⁻¹
same,hemoglobin content,[1]; Day 55,12.7 g/dL
same,monocytes,[1]; Day 55,1.6%
same,neutrophils,[1]; Day 55,132%
same,platelet count,[1]; Day 55,360 ×100/μL
same,HCT,[1]; Day-5,44%
same,MCH,[1]; Day-5,22.8 pg
same,MCHC,[1]; Day-5,29.7 g/dL
same,MCV,[1]; Day-5,77 fL
same,RBC count,[1]; Day-5,5.8e+06 µL⁻¹
same,WBC count,[1]; Day-5,11000 µL⁻¹
same,hemoglobin content,[1]; Day-5,13.2 g/dL
same,monocytes,[1]; Day-5,2.0%
same,neutrophils,[1]; Day-5,86%
same,platelet count,[1]; Day-5,463 ×100/μL
same,HCT,[1]; Day-14,41%
same,MCH,[1]; Day-14,23.0 pg
same,MCHC,[1]; Day-14,31.2 g/dL
same,MCV,[1]; Day-14,75 fL
same,RBC count,[1]; Day-14,5.6e+06 µL⁻¹
same,WBC count,[1]; Day-14,11000 µL⁻¹
same,hemoglobin content,[1]; Day-14,13.0 g/dL
same,monocytes,[1]; Day-14,1.3%
same,neutrophils,[1]; Day-14,93%
same,platelet count,[1]; Day-14,411 ×100/μL
same,Change in Kidney weight,[2],−7%
same,Change in Liver weight,[2],+6%
same,Change in Spleen weight,[2],+43%
same,BUN,[3],29 mg/dL
same,Creatinine,[3],0.3 mg/dL
same,Urine protein/creatinine ratio,[3],5.9
"ISIS 449711: 3-8-3, 4-8-4, 2-10-2, 3-10-3 or 4-10-4 MOE microwalk gapmer (Table 46) (antisense eA*e[5mC]*dA*dG*dT*dT*dT*d[5mC]*dT*dG*dG*d[5mC]*eA*eG)",HCT,[1]; Day 17,42%
same,MCH,[1]; Day 17,22.2 pg
same,MCHC,[1]; Day 17,29.9 g/dL
same,MCV,[1]; Day 17,75 fL
same,RBC count,[1]; Day 17,5.6e+06 µL⁻¹
same,WBC count,[1]; Day 17,10000 µL⁻¹
same,hemoglobin content,[1]; Day 17,12.5 g/dL
same,monocytes,[1]; Day 17,5.9%
same,neutrophils,[1]; Day 17,52%
same,platelet count,[1]; Day 17,325 ×100/μL
same,HCT,[1]; Day 31,39%
same,MCH,[1]; Day 31,22.1 pg
same,MCHC,[1]; Day 31,29.8 g/dL
same,MCV,[1]; Day 31,73 fL
same,RBC count,[1]; Day 31,5.4e+06 µL⁻¹
same,WBC count,[1]; Day 31,9000 µL⁻¹
same,hemoglobin content,[1]; Day 31,11.8 g/dL
same,monocytes,[1]; Day 31,6.9%
same,neutrophils,[1]; Day 31,58%
same,platelet count,[1]; Day 31,309 ×100/μL
same,HCT,[1]; Day 45,39%
same,MCH,[1]; Day 45,21.7 pg
same,MCHC,[1]; Day 45,29.6 g/dL
same,MCV,[1]; Day 45,73 fL
same,RBC count,[1]; Day 45,5.4e+06 µL⁻¹
same,WBC count,[1]; Day 45,9000 µL⁻¹
same,hemoglobin content,[1]; Day 45,11.5 g/dL
same,monocytes,[1]; Day 45,7.6%
same,neutrophils,[1]; Day 45,45%
same,platelet count,[1]; Day 45,257 ×100/μL
same,HCT,[1]; Day 55,38%
same,MCH,[1]; Day 55,21.3 pg
same,MCHC,[1]; Day 55,29.5 g/dL
same,MCV,[1]; Day 55,73 fL
same,RBC count,[1]; Day 55,5.3e+06 µL⁻¹
same,WBC count,[1]; Day 55,7000 µL⁻¹
same,hemoglobin content,[1]; Day 55,11.3 g/dL
same,monocytes,[1]; Day 55,7.8%
same,neutrophils,[1]; Day 55,70%
same,platelet count,[1]; Day 55,259 ×100/μL
same,HCT,[1]; Day-5,41%
same,MCH,[1]; Day-5,22.7 pg
same,MCHC,[1]; Day-5,30.7 g/dL
same,MCV,[1]; Day-5,74 fL
same,RBC count,[1]; Day-5,5.7e+06 µL⁻¹
same,WBC count,[1]; Day-5,12000 µL⁻¹
same,hemoglobin content,[1]; Day-5,12.7 g/dL
same,monocytes,[1]; Day-5,2.3%
same,neutrophils,[1]; Day-5,71%
same,platelet count,[1]; Day-5,431 ×100/μL
same,HCT,[1]; Day-14,41%
same,MCH,[1]; Day-14,22.6 pg
same,MCHC,[1]; Day-14,31.0 g/dL
same,MCV,[1]; Day-14,73 fL
same,RBC count,[1]; Day-14,5.6e+06 µL⁻¹
same,WBC count,[1]; Day-14,13000 µL⁻¹
same,hemoglobin content,[1]; Day-14,12.7 g/dL
same,monocytes,[1]; Day-14,1.2%
same,neutrophils,[1]; Day-14,64%
same,platelet count,[1]; Day-14,410 ×100/μL
same,Change in Kidney weight,[2],−12%
same,Change in Liver weight,[2],+18%
same,Change in Spleen weight,[2],+63%
same,BUN,[3],28 mg/dL
same,Creatinine,[3],0.4 mg/dL
same,Urine protein/creatinine ratio,[3],7.3
